# Experimental data taken from patent US20250296971A1, “GASTRIC INHIBITORY PEPTIDE RECEPTOR LIGANDS” (priority 2021, published 2025).
# *1 amine or outer side, *2 acyl side, *3 side chain or, on linkers, in order; H or OH if unused. Where a SMILES comes first, the peptide text is derived from it. Bridges are numbered along the chain shown (N, C = ends). [ ]: non-standard residue; d: D form. Trp(5-Cl) = N[C@@H](Cc1c[nH]c2ccc(Cl)cc12)C(=O)O; Phe(3,5-Cl2) = N[C@@H](Cc1cc(Cl)cc(Cl)c1)C(=O)O; Pyridine(2,6-diCH2) = c1cc(C[*:1])nc(C[*:2])c1; Oic = O=C(O)[C@@H]1C[C@@H]2CCCC[C@@H]2N1; Phe(2-Cl) = N[C@@H](Cc1ccccc1Cl)C(=O)O; 1Nal = N[C@@H](Cc1cccc2ccccc12)C(=O)O; mXylylene = c1cc(C[*:1])cc(C[*:2])c1; X7 = c1cc(CSCCN[*:2])cc(C[*:1])c1; Hyp = O=C(O)[C@@H]1C[C@@H](O)CN1; Suc = O=C(CCC(=O)[*:2])[*:1]; hLeu = CC(C)CC[C@H](N)C(=O)O; Pip = O=C(O)[C@@H]1CCCCN1; Thp = NC1(C(=O)O)CCOCC1; Aib = CC(C)(N)C(=O)O
# Target: T1, GIPR (CHO-K1-hGIPR cells) (Homo sapiens, UniProt P48546)
# T1 construct: host or cells: CHO-K1
# T1 sequence (P48546 22-466): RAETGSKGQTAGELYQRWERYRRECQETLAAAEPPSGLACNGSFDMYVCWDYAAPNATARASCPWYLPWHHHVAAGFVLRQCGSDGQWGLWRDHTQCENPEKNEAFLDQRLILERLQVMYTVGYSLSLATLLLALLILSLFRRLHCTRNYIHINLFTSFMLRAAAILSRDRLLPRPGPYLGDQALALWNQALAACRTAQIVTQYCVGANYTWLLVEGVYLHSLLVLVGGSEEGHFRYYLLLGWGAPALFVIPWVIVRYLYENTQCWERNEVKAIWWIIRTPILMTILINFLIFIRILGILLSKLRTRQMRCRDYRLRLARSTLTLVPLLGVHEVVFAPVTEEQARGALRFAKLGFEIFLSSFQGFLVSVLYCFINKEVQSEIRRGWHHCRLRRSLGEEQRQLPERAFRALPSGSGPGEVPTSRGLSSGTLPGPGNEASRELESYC
# Assay: FACS binding assay
# Conditions: competition with 20 nM GIP-057, 4° C. for 1 hour, read-out: pIC50 Category (converted)
# Outline: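 Steps: detach CHO-K1-hGIPR cells (Accutase); wash in PBS/1% FCS; adjust to 500.000 cells per mL; wash ice-cold; incubate APC-streptavidin 1 μg/mL, 30 min on ice; wash twice; acquire on flow cytometer; fit MFI-concentration data with a four-parameter logistic model.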
row,IC50,SMILES
1,10 to 79.4 nM,"CC[C@H](C)[C@@H]1NC(=O)[C@H](CC(C)C)NC(=O)[C@@H](C)NC(=O)[C@@H](NC(=O)[C@H](CC(C)C)NC(=O)[C@H](CCC(=O)O)NC(=O)[C@@H]2CCCN2C(=O)[C@H](Cc2c[nH]c3ccccc23)NC(=O)[C@H](Cc2c[nH]c3ccccc23)NC(=O)[C@H](CC(=O)O)NC(C)=O)CSCc2cccc(c2)CSCCNC1=O [GIP-250, Ac-Asp-Trp-Trp-Pro-Glu-Leu-[Cys(3MeBn)-ala-Leu-Ile-AET]] (Ac-DWWPELC[dA]LI; linker 7-C via X7)"
2,10 to 79.4 nM,"CC[C@H](C)[C@@H]1NC(=O)[C@H](CC(C)C)NC(=O)[C@H](C)NC(=O)[C@@H](NC(=O)[C@H](CC(C)C)NC(=O)[C@H](CCC(=O)O)NC(=O)[C@@H]2CCCN2C(=O)[C@H](Cc2c[nH]c3ccccc23)NC(=O)[C@H](Cc2c[nH]c3ccccc23)NC(=O)CCC(=O)O)CSCc2cccc(c2)CSC[C@@H](C(N)=O)NC1=O [GIP-255, HO-Succinyl-Trp-Trp-Pro-Glu-Leu-[Cys(3MeBn)-Ala-Leu-Ile-Cys]-NH2] (Suc-WWPELCALIC-NH2; linker 6-10 via mXylylene)"
3,10 to 79.4 nM,"CC[C@H](C)[C@@H]1NC(=O)[C@H](CC(C)C)NC(=O)[C@H](C)NC(=O)[C@@H](NC(=O)[C@H](CC(C)C)NC(=O)[C@H](CCC(=O)O)NC(=O)[C@@H]2CCCN2C(=O)[C@H](Cc2c[nH]c3ccccc23)NC(=O)[C@H](Cc2c[nH]c3ccccc23)NC(=O)CCC(=O)O)CSCc2cccc(c2)CSCCNC1=O [GIP-256, HO-Succinyl-Trp-Trp-Pro-Glu-Leu-[Cys(3MeBn)-Ala-Leu-Ile-AET]] (Suc-WWPELCALI; linker 6-C via X7)"
4,10 to 79.4 nM,"CC[C@H](C)[C@@H]1NC(=O)[C@H](CC(C)C)NC(=O)[C@H](C)NC(=O)[C@@H](NC(=O)[C@H](CC(C)C)NC(=O)[C@H](CCC(=O)O)NC(=O)[C@@H]2CCCN2C(=O)[C@H](Cc2c[nH]c3ccccc23)NC(=O)[C@H](Cc2c[nH]c3ccccc23)NC(=O)CCC(=O)O)CSCc2cccc(n2)CSC[C@@H](C(N)=O)NC1=O [GIP-257, HO-Succinyl-Trp-Trp-Pro-Glu-Leu-[Cys(2Lut)-Ala-Leu-Ile-Cys]-NH2] (Suc-WWPELCALIC-NH2; linker 6-10 via Pyridine(2,6-diCH2))"
5,10 to 79.4 nM,"CC[C@H](C)[C@@H]1NC(=O)[C@H](CC(C)C)NC(=O)C(C)(C)NC(=O)[C@@H](NC(=O)[C@@H](CC(C)C)NC(=O)[C@H](CCC(=O)O)NC(=O)[C@@H]2CCCN2C(=O)[C@H](Cc2c[nH]c3ccccc23)NC(=O)[C@H](Cc2c[nH]c3ccccc23)NC(=O)CCC(=O)O)CSCc2cccc(c2)CSC[C@@H](C(N)=O)NC1=O [GIP-258, HO-Succinyl-Trp-Trp-Pro-Glu-leu-[Cys(3MeBn)-Aib-Leu-Ile-Cys]-NH2] (Suc-WWPE[dL]C[Aib]LIC-NH2; linker 6-10 via mXylylene)"
6,10 to 79.4 nM,"CC[C@H](C)[C@@H]1NC(=O)[C@H](CC(C)C)NC(=O)C(C)(C)NC(=O)[C@@H](NC(=O)[C@H](CC(C)C)NC(=O)[C@H](CCC(=O)O)NC(=O)[C@@H]2CCCN2C(=O)[C@H](Cc2c[nH]c3ccccc23)NC(=O)[C@H](Cc2c[nH]c3ccccc23)NC(=O)CCC(=O)O)CSCc2cccc(c2)CSC[C@@H](C(N)=O)NC1=O [GIP-259, HO-Succinyl-Trp-Trp-Pro-Glu-Leu-[Cys(3MeBn)-Aib-Leu-Ile-Cys]-NH2] (Suc-WWPELC[Aib]LIC-NH2; linker 6-10 via mXylylene)"
7,10 to 79.4 nM,"CC[C@H](C)[C@@H]1NC(=O)[C@H](CCC(C)C)NC(=O)C(C)(C)NC(=O)[C@@H](NC(=O)[C@H](CC(C)C)NC(=O)[C@H](CCC(=O)O)NC(=O)[C@@H]2CCCN2C(=O)[C@H](Cc2c[nH]c3ccccc23)NC(=O)[C@H](Cc2c[nH]c3ccccc23)NC(=O)CCC(=O)O)CSCc2cccc(c2)CSC[C@@H](C(N)=O)NC1=O [GIP-260, HO-Succinyl-Trp-Trp-Pro-Glu-Leu-[Cys(3MeBn)-Aib-Hle-Ile-Cys]-NH2] (Suc-WWPELC[Aib][hLeu]IC-NH2; linker 6-10 via mXylylene)"
8,10 to 79.4 nM,"CC[C@H](C)[C@@H]1NC(=O)[C@H](CC(C)C)NC(=O)C2(CCOCC2)NC(=O)[C@@H](NC(=O)[C@H](CC(C)C)NC(=O)[C@H](CCC(=O)O)NC(=O)[C@@H]2CCCN2C(=O)[C@H](Cc2c[nH]c3ccccc23)NC(=O)[C@H](Cc2c[nH]c3ccccc23)NC(=O)CCC(=O)O)CSCc2cccc(c2)CSC[C@@H](C(N)=O)NC1=O [GIP-261, HO-Succinyl-Trp-Trp-Pro-Glu-Leu-[Cys(3MeBn)-Thp-Leu-Ile-Cys]-NH2] (Suc-WWPELC[Thp]LIC-NH2; linker 6-10 via mXylylene)"

# The remaining lines, values behind:
row,SMILES,IC50
1,CC[C@H](C)[C@@H]1NC(=O)[C@H](CC(C)C)NC(=O)[C@H](C)NC(=O)[C@@H](NC(=O)[C@H](CC(C)C)NC(=O)[C@H](CCC(=O)O)NC(=O)[C@@H]2CCCN2C(=O)[C@H](Cc2c[nH]c3ccccc23)NC(=O)[C@H](Cc2c[nH]c3ccccc23)NC(=O)[C@H](CC(=O)O)NC(=O)[C@H](C)NC(=O)[C@@H](N)CCSC)CSCc2cccc(c2)CSC[C@@H](C(N)=O)NC1=O [GIP-249] (H-MADWWPELCALIC-NH2; linker 9-13 via mXylylene),10 to 79.4 nM
2,"CC[C@H](C)[C@@H]1NC(=O)[C@H](CC(C)C)NC(=O)C(C)(C)NC(=O)[C@@H](NC(=O)[C@H](CC(C)C)NC(=O)[C@H](CCC(=O)O)NC(=O)[C@@H]2CCCN2C(=O)[C@H](Cc2c[nH]c3ccccc23)NC(=O)[C@H](Cc2c[nH]c3ccccc23)NC(=O)[C@H](CC(=O)O)NC(C)=O)CSCc2cccc(c2)CSCCNC1=O [GIP-251, Ac-Asp-Trp-Tip-Pro-Glu-Leu-[Cys(3MeBn)-Aib-Leu-Ile-AET]] (Ac-DWWPELC[Aib]LI; linker 7-C via X7)",10 to 79.4 nM
3,"CC[C@H](C)[C@@H]1NC(=O)[C@H](CC(C)C)NC(=O)C(C)(C)NC(=O)[C@@H](NC(=O)[C@H](CC(C)C)NC(=O)[C@H](CCC(=O)O)NC(=O)[C@@H]2C[C@@H]3CCCC[C@@H]3N2C(=O)[C@H](Cc2cccc3ccccc23)NC(=O)[C@H](Cc2c[nH]c3ccccc23)NC(=O)[C@H](CC(=O)O)NC(C)=O)CSCc2cccc(c2)CSC[C@@H](C(N)=O)NC1=O [GIP-252, Ac-Asp-Trp-1Ni-Pip-Glu-Leu-[Cys(3MeBn)-Aib-Leu-Ile-Cys]-NH2] (Ac-DW[1Nal][Oic]ELC[Aib]LIC-NH2; linker 7-11 via mXylylene)",10 to 79.4 nM
4,"CC[C@H](C)[C@@H]1NC(=O)[C@H](CC(C)C)NC(=O)C(C)(C)NC(=O)[C@@H](NC(=O)[C@H](CC(C)C)NC(=O)[C@H](CCC(=O)O)NC(=O)[C@@H]2CCCCN2C(=O)[C@H](Cc2cccc3ccccc23)NC(=O)[C@H](Cc2c[nH]c3ccccc23)NC(=O)[C@H](CC(=O)O)NC(C)=O)CSCc2cccc(c2)CSC[C@@H](C(N)=O)NC1=O [GIP-253, Ac-Asp-Trp-1Ni-Pip-Glu-Leu-[Cys(3MeBn)-Aib-Leu-Ile-Cys]-NH2] (Ac-DW[1Nal][Pip]ELC[Aib]LIC-NH2; linker 7-11 via mXylylene)",10 to 79.4 nM
5,CC[C@H](C)[C@@H]1NC(=O)[C@H](CC(C)C)NC(=O)[C@H](C)NC(=O)[C@@H](NC(=O)[C@H](CC(C)C)NC(=O)[C@H](CCC(=O)O)NC(=O)[C@@H]2CCCN2C(=O)[C@H](Cc2c[nH]c3ccccc23)NC(=O)[C@H](Cc2c[nH]c3ccccc23)NC(=O)[C@H](CC(=O)O)NC(=O)[C@H](Cc2ccc(O)cc2)NC(=O)[C@@H](N)CCSC)CSCc2cccc(c2)CSC[C@@H](C(N)=O)NC1=O [GIP-254] (H-MYDWWPELCALIC-NH2; linker 9-13 via mXylylene),10 to 79.4 nM
6,"CC[C@H](C)[C@@H]1NC(=O)[C@H](CC(C)C)NC(=O)C2(CCOCC2)NC(=O)[C@@H](NC(=O)[C@@H](CC(C)C)NC(=O)[C@H](CCC(=O)O)NC(=O)[C@@H]2C[C@@H](O)CN2C(=O)[C@H](Cc2c[nH]c3ccc(Cl)cc23)NC(=O)[C@H](Cc2ccccc2Cl)NC(=O)[C@H](CC(=O)O)NC(C)=O)CSCc2cccc(n2)CSC[C@@H](C(N)=O)NC1=O [GIP-262, Ac-Asp-Ocf-5Clw-Hyp-Glu-leu-[Cys(2Lut)-Thp-Leu-Ile-Cys]-NH2] (Ac-D[Phe(2-Cl)][Trp(5-Cl)][Hyp]E[dL]C[Thp]LIC-NH2; linker 7-11 via Pyridine(2,6-diCH2))",10 to 79.4 nM
7,"CC[C@H](C)[C@@H]1NC(=O)[C@H](CC(C)C)NC(=O)C2(CCOCC2)NC(=O)[C@@H](NC(=O)[C@@H](CC(C)C)NC(=O)[C@H](CCC(=O)O)NC(=O)[C@@H]2C[C@@H](O)CN2C(=O)[C@H](Cc2c[nH]c3ccc(Cl)cc23)NC(=O)[C@H](Cc2cc(Cl)cc(Cl)c2)NC(=O)[C@H](CC(=O)O)NC(C)=O)CSCc2cccc(n2)CSC[C@@H](C(N)=O)NC1=O [GIP-263, Ac-Asp-Egn-5Clw-Hyp-Glu-leu-[Cys(2Lut)-Thp-Leu-Ile-Cys]-NH2] (Ac-D[Phe(3,5-Cl2)][Trp(5-Cl)][Hyp]E[dL]C[Thp]LIC-NH2; linker 7-11 via Pyridine(2,6-diCH2))",10 to 79.4 nM
8,"CC[C@H](C)[C@@H]1NC(=O)[C@H](CC(C)C)NC(=O)C2(CCOCC2)NC(=O)[C@@H](NC(=O)[C@@H](CC(C)C)NC(=O)[C@H](CCC(=O)O)NC(=O)[C@@H]2C[C@@H](O)CN2C(=O)[C@H](Cc2cc(Cl)cc(Cl)c2)NC(=O)[C@H](Cc2c[nH]c3ccccc23)NC(=O)[C@H](CC(=O)O)NC(C)=O)CSCc2cccc(n2)CSC[C@@H](C(N)=O)NC1=O [GIP-264, Ac-Asp-Trp-Egn-Hyp-Glu-leu-[Cys(2Lut)-Thp-Leu-Ile-Cys]-NH2] (Ac-DW[Phe(3,5-Cl2)][Hyp]E[dL]C[Thp]LIC-NH2; linker 7-11 via Pyridine(2,6-diCH2))",10 to 79.4 nM
